In ChEMBL document CHEMBL4828763, “Discovery of Potent and Selective CDK9 Degraders for Targeting Transcription Regulation in Triple-Negative Breast Cancer” (J Med Chem, 2021):
The source made the active and inactive calls. No cut-off for these calls is given here.

Columns and labels:
MDA-MB-468 = assay: Growth inhibition of human MDA-MB-468 cells assessed as cell viability measured after 4 days by WST8 assay; assay type: functional, cell-based; conditions: MDA-MB-468, 96 h
BT-549 = assay: Growth inhibition of human BT-549 cells assessed as cell viability measured after 4 days by WST8 assay; assay type: functional, cell-based; conditions: BT-549, 96 h
MDA-MB-231 [1] = assay: Growth inhibition of human MDA-MB-231 cells assessed as cell viability measured after 4 days by WST8 assay; assay type: functional, cell-based; conditions: MDA-MB-231, 96 h
[2] = biological target: Protein cereblon/Cyclin-dependent kinase 9 (Homo sapiens) (UniProt P50750+Q96SW2); assay: Protac activity at CRBN/CDK9 in human MDA-MB-231 cells assessed as induction of degradation of CDK9 pretreated with MLN4924 at 500 nM incubated for 8 hrs by Western blot analysis; assay type: cell-based
Protein cereblon/Cyclin-dependent kinase 9 (Homo sapiens), sequence (P50750 whole entry, looked up): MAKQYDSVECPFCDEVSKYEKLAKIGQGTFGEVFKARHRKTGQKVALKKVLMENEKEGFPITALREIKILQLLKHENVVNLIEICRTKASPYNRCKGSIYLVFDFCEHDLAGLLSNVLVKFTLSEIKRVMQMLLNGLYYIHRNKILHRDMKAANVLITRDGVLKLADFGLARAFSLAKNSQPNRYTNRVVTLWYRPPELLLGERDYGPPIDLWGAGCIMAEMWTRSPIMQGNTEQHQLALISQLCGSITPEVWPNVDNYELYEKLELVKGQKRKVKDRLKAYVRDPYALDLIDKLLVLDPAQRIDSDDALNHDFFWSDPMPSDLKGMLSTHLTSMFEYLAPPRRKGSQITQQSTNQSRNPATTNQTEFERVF
Protein cereblon/Cyclin-dependent kinase 9 (Homo sapiens), sequence (Q96SW2 whole entry, looked up): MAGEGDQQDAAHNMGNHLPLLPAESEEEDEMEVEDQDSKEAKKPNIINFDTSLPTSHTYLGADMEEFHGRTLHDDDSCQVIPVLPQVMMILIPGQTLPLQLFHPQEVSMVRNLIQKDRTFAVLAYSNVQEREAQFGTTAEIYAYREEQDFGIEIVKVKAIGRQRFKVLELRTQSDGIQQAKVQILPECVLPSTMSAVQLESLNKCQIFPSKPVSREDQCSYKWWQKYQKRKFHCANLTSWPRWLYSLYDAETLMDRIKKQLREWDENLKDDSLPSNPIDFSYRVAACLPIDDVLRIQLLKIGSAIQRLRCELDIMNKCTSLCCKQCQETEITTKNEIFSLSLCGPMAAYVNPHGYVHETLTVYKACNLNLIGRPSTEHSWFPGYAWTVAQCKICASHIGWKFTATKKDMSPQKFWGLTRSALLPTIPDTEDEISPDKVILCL

[3] = biological target: Protein cereblon/Cyclin-dependent kinase 1 (Homo sapiens) (UniProt P06493+Q96SW2); assay: Protac activity at CRBN/CDK1 in human MDA-MB-231 cells assessed as induction of degradation of CDK1 at 100 to 500 nM incubated for 4 to 8 hrs by Western blot analysis; assay type: cell-based; conditions: dose 100-500 nM, time 4-8 hrs
Protein cereblon/Cyclin-dependent kinase 1 (Homo sapiens), sequence (P06493 whole entry, looked up): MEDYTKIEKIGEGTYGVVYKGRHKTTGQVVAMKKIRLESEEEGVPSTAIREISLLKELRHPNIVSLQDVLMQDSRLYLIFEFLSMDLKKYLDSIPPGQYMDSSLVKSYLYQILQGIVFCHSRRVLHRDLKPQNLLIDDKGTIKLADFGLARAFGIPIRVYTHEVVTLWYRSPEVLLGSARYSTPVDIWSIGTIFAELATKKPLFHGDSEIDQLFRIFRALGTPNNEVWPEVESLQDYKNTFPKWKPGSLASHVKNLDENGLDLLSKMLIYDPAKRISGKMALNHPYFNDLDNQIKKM
Protein cereblon/Cyclin-dependent kinase 1 (Homo sapiens), sequence (Q96SW2 whole entry, looked up): as the sequence (Q96SW2 whole entry, looked up) above

[4] = biological target: Protein cereblon/Cyclin-dependent kinase 2 (Homo sapiens) (UniProt P24941+Q96SW2); assay: Protac activity at CRBN/CDK2 in human MDA-MB-231 cells assessed as induction of degradation of CDK2 at 100 to 500 nM incubated for 4 to 8 hrs by Western blot analysis; assay type: cell-based; conditions: dose 100-500 nM, time 4-8 hrs
[5] = biological target: Protein cereblon/Cyclin-dependent kinase 4 (Homo sapiens) (UniProt P11802+Q96SW2); assay: Protac activity at CRBN/CDK4 in human MDA-MB-231 cells assessed as induction of degradation of CDK4 at 100 to 500 nM incubated for 4 to 8 hrs by Western blot analysis; assay type: cell-based; conditions: dose 100-500 nM, time 4-8 hrs
Protein cereblon/Cyclin-dependent kinase 4 (Homo sapiens), sequence (P11802 2-303 limits assumed): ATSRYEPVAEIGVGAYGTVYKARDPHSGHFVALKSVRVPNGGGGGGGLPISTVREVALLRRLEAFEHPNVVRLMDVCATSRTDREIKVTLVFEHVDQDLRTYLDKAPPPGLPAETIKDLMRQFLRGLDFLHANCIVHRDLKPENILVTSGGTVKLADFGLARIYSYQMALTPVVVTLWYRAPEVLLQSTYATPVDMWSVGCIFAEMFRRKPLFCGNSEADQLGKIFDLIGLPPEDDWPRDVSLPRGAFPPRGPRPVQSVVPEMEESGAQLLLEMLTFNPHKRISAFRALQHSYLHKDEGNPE
Protein cereblon/Cyclin-dependent kinase 4 (Homo sapiens), sequence (Q96SW2 whole entry partner): as the sequence (Q96SW2 whole entry, looked up) above

[6] = biological target: Protein cereblon/Cyclin-dependent kinase 5 (Homo sapiens) (UniProt Q00535+Q96SW2); assay: Protac activity at CRBN/CDK5 in human MDA-MB-231 cells assessed as induction of degradation of CDK5 at 100 to 500 nM incubated for 4 to 8 hrs by Western blot analysis; assay type: cell-based; conditions: dose 100-500 nM, time 4-8 hrs
Protein cereblon/Cyclin-dependent kinase 5 (Homo sapiens), sequence (Q00535 whole entry, looked up): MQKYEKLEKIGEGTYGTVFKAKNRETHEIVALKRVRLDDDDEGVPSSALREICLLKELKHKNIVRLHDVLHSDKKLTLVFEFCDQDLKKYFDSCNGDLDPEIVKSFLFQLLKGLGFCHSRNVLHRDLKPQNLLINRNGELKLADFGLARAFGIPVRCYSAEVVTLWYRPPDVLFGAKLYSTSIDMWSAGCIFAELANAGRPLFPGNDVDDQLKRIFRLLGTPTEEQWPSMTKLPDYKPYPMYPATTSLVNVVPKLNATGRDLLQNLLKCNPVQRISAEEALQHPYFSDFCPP
Protein cereblon/Cyclin-dependent kinase 5 (Homo sapiens), sequence (Q96SW2 whole entry, looked up): as the sequence (Q96SW2 whole entry, looked up) above

[7] = biological target: Protein cereblon/Cyclin-dependent kinase 6 (Homo sapiens) (UniProt Q00534+Q96SW2); assay: Protac activity at CRBN/CDK6 in human MDA-MB-231 cells assessed as induction of degradation of CDK6 at 100 to 500 nM incubated for 4 to 8 hrs by Western blot analysis; assay type: cell-based; conditions: dose 100-500 nM, time 4-8 hrs
Protein cereblon/Cyclin-dependent kinase 6 (Homo sapiens), sequence (Q00534 whole entry, looked up): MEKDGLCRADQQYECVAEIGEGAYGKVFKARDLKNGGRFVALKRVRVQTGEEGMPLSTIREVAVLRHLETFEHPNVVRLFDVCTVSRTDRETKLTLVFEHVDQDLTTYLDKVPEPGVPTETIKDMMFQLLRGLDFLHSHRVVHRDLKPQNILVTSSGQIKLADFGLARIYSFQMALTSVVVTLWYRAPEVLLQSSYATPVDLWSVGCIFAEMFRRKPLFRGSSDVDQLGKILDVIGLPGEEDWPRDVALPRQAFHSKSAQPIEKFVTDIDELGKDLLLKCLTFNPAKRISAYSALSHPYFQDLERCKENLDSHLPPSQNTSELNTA
Protein cereblon/Cyclin-dependent kinase 6 (Homo sapiens), sequence (Q96SW2 whole entry, looked up): as the sequence (Q96SW2 whole entry, looked up) above

[8] = biological target: Protein cereblon/Cyclin-dependent kinase 7 (Homo sapiens) (UniProt P50613+Q96SW2); assay: Protac activity at CRBN/CDK7 in human MDA-MB-231 cells assessed as induction of degradation of CDK7 at 100 to 500 nM incubated for 4 to 8 hrs by Western blot analysis; assay type: cell-based; conditions: dose 100-500 nM, time 4-8 hrs
Protein cereblon/Cyclin-dependent kinase 7 (Homo sapiens), sequence (P50613 whole entry, looked up): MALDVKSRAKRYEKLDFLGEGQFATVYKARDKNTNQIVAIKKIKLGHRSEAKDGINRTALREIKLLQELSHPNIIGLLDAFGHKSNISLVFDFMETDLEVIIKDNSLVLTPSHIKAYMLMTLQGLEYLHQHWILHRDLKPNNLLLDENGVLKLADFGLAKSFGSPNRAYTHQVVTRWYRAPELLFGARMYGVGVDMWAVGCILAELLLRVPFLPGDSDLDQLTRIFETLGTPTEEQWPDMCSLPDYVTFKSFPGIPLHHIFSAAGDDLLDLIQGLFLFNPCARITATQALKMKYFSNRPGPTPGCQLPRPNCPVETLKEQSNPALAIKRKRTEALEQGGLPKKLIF
Protein cereblon/Cyclin-dependent kinase 7 (Homo sapiens), sequence (Q96SW2 whole entry, looked up): as the sequence (Q96SW2 whole entry, looked up) above

[9] = biological target: Protein cereblon/Eukaryotic peptide chain release factor GTP-binding subunit ERF3A (Homo sapiens) (UniProt Q96SW2+P15170); assay: Protac activity at CRBN/GSPT1 in human MDA-MB-231 cells assessed as induction of degradation of GSPT1 incubated for 4 to 8 hrs by Western blot analysis; assay type: cell-based; conditions: time 4-8 hrs
Protein cereblon/Eukaryotic peptide chain release factor GTP-binding subunit ERF3A (Homo sapiens), sequence (P15170 whole entry, looked up): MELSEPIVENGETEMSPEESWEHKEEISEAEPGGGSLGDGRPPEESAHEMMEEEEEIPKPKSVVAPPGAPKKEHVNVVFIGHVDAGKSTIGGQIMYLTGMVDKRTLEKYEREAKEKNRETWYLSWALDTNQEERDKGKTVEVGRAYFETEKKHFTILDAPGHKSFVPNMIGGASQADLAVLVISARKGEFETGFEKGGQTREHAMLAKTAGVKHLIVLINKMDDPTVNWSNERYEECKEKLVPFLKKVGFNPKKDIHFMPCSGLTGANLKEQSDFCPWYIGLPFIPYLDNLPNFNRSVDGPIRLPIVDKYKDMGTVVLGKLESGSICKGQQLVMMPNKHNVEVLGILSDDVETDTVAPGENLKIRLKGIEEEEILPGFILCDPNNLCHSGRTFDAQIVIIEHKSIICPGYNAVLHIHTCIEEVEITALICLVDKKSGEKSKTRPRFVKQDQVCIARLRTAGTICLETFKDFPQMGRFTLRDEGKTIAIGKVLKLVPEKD
Protein cereblon/Eukaryotic peptide chain release factor GTP-binding subunit ERF3A (Homo sapiens), sequence (Q96SW2 whole entry, looked up): as the sequence (Q96SW2 whole entry, looked up) above

Tumour [10] = assay: Induction of CDK9 degradation in tumor of human MDA-MB-231 cells xenografted in BALB/c mouse model at 0.15 mM intratumoral injection measured after 16 hrs by Western blot analysis relative to control; assay type: functional, Neoplasm
Tumour [11] = assay: Induction of CDK7 degradation in tumor of human MDA-MB-231 cells xenografted in BALB/c mouse model at 0.15 mM intratumoral injection measured after 16 hrs by Western blot analysis relative to control; assay type: functional, tissue-based; conditions: Neoplasm
MDA-MB-231 [12] = assay: Antitumor activity against human MDA-MB-231 cells xenografted in BALB/c mouse model assessed as decrease in tumor volume at 2.5 mg/kg, intratumoral injection daily for 7 days relative to control; assay type: functional; set-up: scale not given: the % may be the effect or the level left; conditions: time 7 day
MDA-MB-231 [13] = assay: Antitumor activity against human MDA-MB-231 cells xenografted in BALB/c mouse model assessed as decrease in tumor volume at 5 mg/kg, intratumoral injection daily for 7 days relative to control; assay type: functional; set-up: scale not given: the % may be the effect or the level left; conditions: time 7 day
[14] = Toxicity in BALB/c mouse xenografted with human MDA-MB-231 cells assessed as body weight loss at 2.5 mg/kg, intratumoral injection daily for 7 days; assay type: organism-based; conditions: in vivo, other, 168 h, time 7 day
[15] = Toxicity in BALB/c mouse xenografted with human MDA-MB-231 cells assessed as body weight loss at 5 mg/kg, intratumoral injection daily for 7 days; assay type: organism-based; conditions: in vivo, other, 168 h, time 7 day
MDA-MB-231 [16] = assay: Antitumor activity against human MDA-MB-231 cells xenografted in BALB/c mouse model assessed as induction of CDK9 degradation in tumor tissue at 2.5 mg/kg, intratumoral injection daily for 7 days by Western blot analysis relative to control; assay type: functional, organism-based; conditions: time 7.0 day
MDA-MB-231 [17] = assay: Antitumor activity against human MDA-MB-231 cells xenografted in BALB/c mouse model assessed as induction of CDK9 degradation in tumor tissue at 5 mg/kg, intratumoral injection daily for 7 days by Western blot analysis relative to control; assay type: functional, organism-based; conditions: time 7.0 day
Tumour [18] = assay: Effect on CDK7 protein level in tumor of BALB/c mouse xenografted with human MDA-MB-231 cells at 2.5 to 5 mg/kg, intratumoral injection daily for 7 days by Western blot analysis relative to control; assay type: functional, organism-based; conditions: Neoplasm, dose 2.5-5 mg/kg, time 7.0 day
Tumour [19] = assay: Reduction in CDK9 protein level in tumor of BALB/c mouse xenografted with human MDA-MB-231 cells at 2.5 mg/kg, intratumoral injection daily for 7 days by immunohistochemistry staining analysis relative to control; assay type: functional; conditions: MDA-MB-231, Neoplasm, 168 h, time 7 day
Tumour [20] = assay: Reduction in CDK9 protein level in tumor of BALB/c mouse xenografted with human MDA-MB-231 cells at 5 mg/kg, intratumoral injection daily for 7 days by immunohistochemistry staining analysis relative to control; assay type: functional; conditions: MDA-MB-231, Neoplasm, 168 h, time 7 day
Tumour [21] = assay: Reduction in MYC protein level in tumor of BALB/c mouse xenografted with human MDA-MB-231 cells at 2.5 mg/kg, intratumoral injection daily for 7 days by immunohistochemistry staining analysis relative to control; assay type: functional; conditions: MDA-MB-231, Neoplasm, 168 h, time 7 day
Tumour [22] = assay: Reduction in MYC protein level in tumor of BALB/c mouse xenografted with human MDA-MB-231 cells at 5 mg/kg, intratumoral injection daily for 7 days by immunohistochemistry staining analysis relative to control; assay type: functional; conditions: MDA-MB-231, Neoplasm, 168 h, time 7 day
Tumour [23] = assay: Reduction in CDK7 protein level in tumor of BALB/c mouse xenografted with human MDA-MB-231 cells at 2.5 mg/kg, intratumoral injection daily for 7 days by immunohistochemistry staining analysis relative to control; assay type: functional; conditions: MDA-MB-231, Neoplasm, 168 h, time 7 day
Tumour [24] = assay: Reduction in CDK7 protein level in tumor of BALB/c mouse xenografted with human MDA-MB-231 cells at 5 mg/kg, intratumoral injection daily for 7 days by immunohistochemistry staining analysis relative to control; assay type: functional; conditions: MDA-MB-231, Neoplasm, 168 h, time 7 day
Tumour [25] = assay: Reduction in Ki-67 protein level in tumor of BALB/c mouse xenografted with human MDA-MB-231 cells at 2.5 mg/kg, intratumoral injection daily for 7 days by immunohistochemistry staining analysis relative to control; assay type: functional; conditions: MDA-MB-231, Neoplasm, 168 h, time 7 day
Tumour [26] = assay: Reduction in Ki-67 protein level in tumor of BALB/c mouse xenografted with human MDA-MB-231 cells at 5 mg/kg, intratumoral injection daily for 7 days by immunohistochemistry staining analysis relative to control; assay type: functional; conditions: MDA-MB-231, Neoplasm, 168 h, time 7 day

IC50 (MDA-MB-468): 15 µM
IC50 (BT-549): 13.6 µM
IC50 (MDA-MB-231 [1]): 3.9 µM
Activity [2]: Active
Activity [3]: inactive
Activity [4]: inactive
Activity [5]: inactive
Activity [6]: inactive
Activity [7]: inactive
Activity [8]: inactive
Activity [9]: inactive
Structure (SMILES): CC[C@@H](CO)Nc1cc(NCc2ccc(NC(=O)N3CCN(CCCCCc4cccc5c4CN(C4CCC(=O)NC4=O)C5=O)CC3)cc2)n2ncc(C(C)C)c2n1 (stereo partly drawn)
Activity (Tumour [10]): 54%
Activity (Tumour [11]): inactive
Activity (MDA-MB-231 [12]): 50%
Activity (MDA-MB-231 [13]): 50%
Activity [14]: 12.8%
Activity [15]: 13.1%
Activity (MDA-MB-231 [16]): Active
Activity (MDA-MB-231 [17]): Active
Activity (Tumour [18]): inactive
inhibition in vivo at 2.5 mg/kg (Tumour [19]): 62.3%
inhibition in vivo at 5 mg/kg (Tumour [20]): 90.8%
inhibition in vivo at 2.5 mg/kg (Tumour [21]): 41%
inhibition in vivo at 5 mg/kg (Tumour [22]): 76.7%
inhibition in vivo at 2.5 mg/kg (Tumour [23]): 4%
inhibition in vivo at 5 mg/kg (Tumour [24]): 12.4%
inhibition in vivo at 2.5 mg/kg (Tumour [25]): 32.8%
inhibition in vivo at 5 mg/kg (Tumour [26]): 69.7%
